Assay results published in ChEMBL document CHEMBL4354832, “Discovery of a Covalent Inhibitor of KRASG12C (AMG 510) for the Treatment of Solid Tumors” (J Med Chem, 2020).
≈ marks a conversion by molar mass, not a printed value. Where “and” joins values, the source holds several entries; their conditions need not be identical. Equal values may be shown once.

How the values were obtained:
A549 = assay: Antiproliferative activity against human A549 cells harboring KRAS G12S point mutant assessed as cell growth inhibition after 72 hrs by Celltiter-Glo luminescent cell viability assay; format: functional, cell-based; conditions: A549, 72 h
[1] = Solubility of compound in PBS buffer at pH 7.4 incubated for 48 to 72 hrs under shaking conditions by LCMS analysis; format: physicochemical
[2] = Permeability of compound across apical to basolateral membrane in MDCK2 cells at 10 to 50 uM incubated for 2 hrs under shaking condition by LC-MS/MS analysis; format: ADME, cell-based, Canis lupus familiaris, MDCK-II; conditions: dog, MDCK; read-out: permeability
[3] = Half life in BALB/c mouse at 1 mg/kg, iv or 10 mg/kg, po; format: ADME, organism-based; conditions: in vivo
[4] = Intrinsic clearance in mouse cryopreserved hepatocytes assessed per 10^6 cells at 0.5 uM measured upto 60 mins by LCMS analysis; format: ADME, cell-based, Hepatocyte; conditions: read-out: CLH
MIA PaCa-2 = assay: Antiproliferative activity against human MIAPaCa2 cells harboring KRAS G12C point mutant assessed as cell growth inhibition after 72 hrs by Celltiter-Glo luminescent cell viability assay; format: functional, cell-based; conditions: MIA PaCa-2, 72 h
[5] = Solubility of compound in 0.01N HCl at pH 2 incubated for 48 to 72 hrs under shaking conditions by LCMS analysis; format: physicochemical
[6] = Clearance in BALB/c mouse at 1 mg/kg, iv or 10 mg/kg, po; format: ADME, organism-based; conditions: in vivo
[7] = Intrinsic clearance in human cryopreserved hepatocytes assessed per 10^6 cells at 0.5 uM measured upto 60 mins by LCMS analysis; format: ADME, cell-based, Hepatocyte; conditions: read-out: CLH
[8] = Oral bioavailability in BALB/c mouse at 10 mg/kg; format: ADME, organism-based; conditions: in vivo
[9] = Solubility of compound in FaSSIF incubated for 48 to 72 hrs under shaking conditions by LCMS analysis; format: physicochemical
[10] = Volume of distribution at steady state in BALB/c mouse at 1 mg/kg, iv or 10 mg/kg, po; format: ADME, organism-based; conditions: in vivo, read-out: Vdss
GTPase KRas [11] = biological target: GTPase KRas (Homo sapiens, UniProt P01116); assay: Inhibition of KRAS in human MIAPaca2 cells assessed as decrease in EGF-stimulated ERK1/2 phosphorylation preincubated for 2 hrs followed by EGF stimulation; format: cell-based
GTPase KRas [12] = biological target: GTPase KRas (Homo sapiens, UniProt P01116, C118A/G12C); assay: Inhibition of GDP bound recombinant human His-tagged KRAS G12C/C118A mutant (1 to 169 residues) assessed as reduction in SOS1-mediated GDP/GTP nucleotide exchange by measuring the disruption between GDP-bound recombinant His-tagged KRAS G12C/C118A (1 to 169 residues) and Ras binding domain of GST-tagged c-RAF (1 to 149 residues) preincubated for 5 mins followed by SOS1 and GTP addition and further incubated for 30 mins by AlphaLISA assay

| SMILES | IC50 (A549) [µM] | solubility thermodynamic [1] [µM] | Papp A→B at 2 h, up to 50 µM [2] [×10⁻⁶ cm/s] | half-life [3] [min] | hepatocyte CLint at 0.5 µM [4] [µL/min/1e6 cells] | IC50 (MIA PaCa-2) [µM] | solubility thermodynamic [5] [µM] | clearance [6] [mL/min/kg] | hepatocyte CLint at 0.5 µM [7] [µL/min/1e6 cells] | bioavailability [8] [%] | solubility thermodynamic [9] [µM] | Vd [10] [L/kg] | IC50 (GTPase KRas [11]) | IC50 (GTPase KRas [12]) [µM] |
| --- | --- | --- | --- | --- | --- | --- | --- | --- | --- | --- | --- | --- | --- | --- |
| C=CC(=O)N1CCN(c2nc(=O)n(-c3c(C(C)C)ccnc3C)c3nc(-c4c(O)cccc4F)c(Cl)cc23)[C@@H](C)C1 | 32.4 | 335 (≈ 193 µg/mL) | 2 | 24 | 96 | 0.003 | 534 (≈ 308 µg/mL) | 23.3 | 5 | < 0.5 | 435 (≈ 251 µg/mL) | 1.4 | – | – |
| C=CC(=O)N1CCN(c2nc(=O)n(-c3ccccc3C(C)C)c3cc(-c4c(O)cccc4F)c(Cl)cc23)[C@@H](C)C1 | 15.3 | – | 1 | – | 263 | 0.014 | – | – | 113 | – | 226 (≈ 127 µg/mL) | – | 0.028 µM | – |
| C=CC(=O)N1CCN(c2nc(=O)n(-c3ccccc3C(C)C)c3cc(-c4cc(O)cc5ccccc45)c(Cl)cc23)CC1 | 2.7 | – | – | – | – | 0.017 | – | – | – | – | 71 (≈ 41.1 µg/mL) | – | – | – |
| C=CC(=O)N1CCN(c2nc(=O)n(-c3c(C)cccc3C)c3nc(-c4c(O)cccc4F)c(Cl)cc23)[C@@H](C)C1 | – | – | – | – | – | – | – | – | – | – | – | – | 0.199 µM | – |
| C=CC(=O)N1CCN(c2nc(=O)n(-c3ccccc3C3CC3)c3nc(-c4c(O)cccc4F)c(Cl)cc23)[C@@H](C)C1 | – | – | – | – | – | – | – | – | – | – | – | – | 0.109 µM | 0.225 |
| C=CC(=O)N1CCN(c2nnc(-c3ccccc3C)c3cc(-c4c(O)cccc4F)c(Cl)cc23)CC1 | – | – | – | – | – | – | – | – | – | – | – | – | 3.33 µM | 5.71 |
| C=CC(=O)N1CCN(c2nc(=O)n(-c3ncccc3C(C)C)c3nc(-c4c(O)cccc4F)c(Cl)cc23)[C@@H](C)C1 | – | – | – | – | – | – | – | – | – | – | – | – | 0.053 µM | – |
| C=CC(=O)N1CCN(c2nc(=O)n(-c3ccccc3C(C)C)c3nc(-c4ccccc4Cl)c(Cl)cc23)[C@@H](C)C1 | 7.1 | – | 12 | 36 | 319 | 0.016 | – | 90 | 205 | 12 | 175 (≈ 98.4 µg/mL) | 4.8 | – | – |
| C=CC(=O)N1CCN(c2nc(=O)n(-c3c(C)ncnc3C(C)C)c3nc(-c4c(O)cccc4F)c(F)cc23)[C@@H](C)C1 | > 50 | 495 (≈ 278 µg/mL) | < 1 | 18 | 65 | 0.009 | 500 (≈ 281 µg/mL) | 78.3 | 5 | 10 | 500 (≈ 281 µg/mL) | 1.7 | – | – |
| C=CC(=O)N1CCN(c2nnc(-c3ccccc3C3CC3)c3cc(-c4c(O)cccc4F)c(Cl)cc23)CC1 | – | – | – | – | – | – | – | – | – | – | – | – | 7.15 µM | 1.55 |
| C=CC(=O)N1CCN(c2nc(=O)n(-c3ccccc3C(C)C)c3cc(-c4ccccc4F)c(Cl)cc23)[C@@H](C)C1 | 5.8 | – | 10 | 54 | 356 | 0.006 | – | 26.7 | 166 | 12 | 260 (≈ 142 µg/mL) | 1.4 | – | – |
| C=CC(=O)N1CCN(c2nc(=O)n(-c3ccccc3C(C)C)c3cc(-c4ccccc4Cl)c(Cl)cc23)[C@@H](C)C1 | 7.4 | – | 6 | – | 397 | 0.018 | – | – | 317 | – | 255 (≈ 143 µg/mL) | – | 0.22 µM | – |
| C=CC(=O)N1CCN(c2nc(=O)n(-c3ccccc3C(C)C)c3cc(-c4c(C)ccc5[nH]ncc45)c(Cl)cc23)CC1 | 1.7 | – | 4 | 168 | 180 | 0.004 | – | 70 | 121 | < 0.5 | 218 (≈ 124 µg/mL) | 5.3 | 0.008 µM | – |
| C=CC(=O)N1CCN(c2nc(=O)n(-c3ccccc3C(C)C)c3nc(-c4ccccc4F)c(Cl)cc23)[C@@H](C)C1 | 7.9 | 11 (≈ 6.01 µg/mL) | 20 | 36 | 236 | 0.005 | – | 60 | 135 | 9 | 224 (≈ 122 µg/mL) | 2.3 | – | – |
| C=CC(=O)N1CCN(c2ncnc3c(F)c(-c4c(O)cccc4F)c(Cl)cc23)CC1 | – | – | – | – | – | – | – | – | – | – | – | – | 0.831 µM | 0.939 |
| C=CC(=O)N1CCN(c2nc(=O)n(-c3ccccc3C(C)(C)C)c3nc(-c4c(O)cccc4F)c(Cl)cc23)[C@@H](C)C1 | – | – | – | – | – | – | – | – | – | – | – | – | 0.051 µM | – |
| C=CC(=O)N1CCN(c2nc(=O)n(-c3c(C(C)C)ccnc3C)c3nc(-c4c(O)cccc4F)c(F)cc23)[C@@H](C)C1 | 49.1 | 426 (≈ 239 µg/mL) | 1 | 18 | 100 | 0.016 | 484 (≈ 271 µg/mL) | 61.7 | 9 | 15 | 477 (≈ 267 µg/mL) | 1.1 | – | – |
| C=CC(=O)N1CCN(c2nnc(-c3ccccc3Cl)c3cc(-c4c(O)cccc4F)c(Cl)cc23)CC1 | – | – | – | – | – | – | – | – | – | – | – | – | 3.53 µM | 3.52 |
| C=CC(=O)N1CCN(c2nc(=O)n(-c3ccccc3C(C)C)c3nc(-c4ccccc4O)c(Cl)cc23)[C@@H](C)C1 | 12.2 | 88 (≈ 47.9 µg/mL) | 18 | 30 | 288 | 0.013 | 57 (≈ 31 µg/mL) | 28.3 | 82 | 10 | 299 (≈ 163 µg/mL) | 0.8 | – | – |
| C=CC(=O)N1CCN(c2nc(=O)n(-c3c(C)cccc3C(C)C)c3nc(-c4c(O)cccc4F)c(F)cc23)[C@@H](C)C1 | 11.6 | 41 (≈ 22.9 µg/mL) | 22 | 30 | 111 | 0.011 | 24 (≈ 13.4 µg/mL) | 33.3 | 37 | < 0.5 | 164 (≈ 91.8 µg/mL) | 1.1 | – | – |
| C=CC(=O)N1CCN(c2nc(=O)n(-c3ccccc3C(C)C)c3cc(-c4ccccc4C(F)(F)F)c(Cl)cc23)[C@@H](C)C1 | 7.4 | – | 3 | – | 270 | 0.04 | – | – | 148 | – | 218 (≈ 130 µg/mL) | – | – | – |
| C=CC(=O)N1CCN(c2nc(=O)n(-c3ccccc3C(C)C)c3nc(-c4c(O)cccc4F)c(Cl)cc23)CC1 | 11.5 | 14 (≈ 7.67 µg/mL) | 6 | 90 | 109 | 0.011 | 14 (≈ 7.67 µg/mL) | 13.3 | 32 | 1.3 | 204 (≈ 112 µg/mL) | 0.5 | – | – |
| C=CC(=O)N1CCN(c2nnc(-c3ccccc3C(C)C)c3cc(-c4c(O)cccc4F)c(Cl)cc23)CC1 | – | – | – | – | – | – | – | – | – | – | – | – | 1.8 µM | 0.683 |
| C=CC(=O)N1CCN(c2nc(=O)n(-c3ccccc3C(C)C)c3cc(-c4ccccc4F)c(Cl)cc23)CC1 | 6.4 | – | 7 | – | 415 | 0.022 | – | – | 197 | – | 344 (≈ 183 µg/mL) | – | – | – |
| C=CC(=O)N1CCN(c2nnc(-c3ccccc3CC)c3cc(-c4c(O)cccc4F)c(Cl)cc23)CC1 | – | – | – | – | – | – | – | – | – | – | – | – | 2.58 µM | 0.903 |
| C=CC(=O)N1CCN(c2nc(=O)n(-c3ccccc3C(C)C)c3cc(-c4c(O)cccc4F)c(Cl)cc23)CC1 | 10.3 | – | 2 | 204 | 195 | 0.033 | – | 5 | 56 | < 0.5 | 191 (≈ 104 µg/mL) | 0.8 | 0.335 µM and 0.13 µM | 0.101 |
| C=CC(=O)N1CCN(c2nnc(-c3ccccc3)c3cc(-c4c(O)cccc4F)c(Cl)cc23)CC1 | – | – | – | – | – | – | – | – | – | – | – | – | 58 µM | 20.1 |
| C=CC(=O)N1CCN(c2nc(=O)n(-c3c(C)ncnc3C(C)C)c3nc(-c4c(O)cccc4F)c(Cl)cc23)[C@@H](C)C1 | > 50 | 499 (≈ 288 µg/mL) | 1 | 18 | 139 | 0.003 | 421 (≈ 243 µg/mL) | 58.3 | 5 | < 0.5 | 500 (≈ 289 µg/mL) | 0.4 | – | – |
| C=CC(=O)N1CCN(c2nnc(-c3ccccc3OC)c3cc(-c4c(O)cccc4F)c(Cl)cc23)CC1 | – | – | – | – | – | – | – | – | – | – | – | – | 8.05 µM | 9.15 |
| C=CC(=O)N1CCN(c2nc(=O)n(-c3ccnn3C(C)C)c3nc(-c4c(O)cccc4F)c(Cl)cc23)[C@@H](C)C1 | – | – | – | – | – | – | – | – | – | – | – | – | 0.218 µM | – |
